Series [1] has as its system sperm. The series is described as follows: Split quality PV (Example 6). The note with it: Hoechst 12 μL/2 mL, resulting pH 6.70. It counts as cell-based, Jersey bull. As for the experimental part: (§1) A single Jersey bull was collected at an initial sperm concentration 1810×10^6 sperm/ml in a volume of 3.9 ml. The progressive motility of the sperm was 65% with normal morphologies greater than 50%.
(§2) Sperm were suspended at 320 million per mL in 30 mL a first buffer, (TALP described in table 1 at a pH 7.4) with 12 μL of Hoechst 33342 per 2 mL (48 μM) of stain and incubated for 1 hour at 34° C. Stained sperm was then placed as 1 mL aliquots in sample tubes and a 1 mL volume of the appropriate TALP was added. The same second buffer was used as example 1, namely a modified 5.60 pH TALP.
(§3) Each of the stained samples was sorted on a MoFlo SX (Beckman Coulter, USA) as described in Example 6. Screen shots were taken and the dead gate intensity and the split quality were measured in the same way described in Example 1 and recorded in TABLE 14.

For series [2], the system named is membrane compromised sperm. The series can be described thus: Dead gate intensity, yellow 5 and phenol red at higher concentrations (Example 6). Particulars: for Intensity: Hoechst 12 μL/2 mL. The class given is cell-based, Jersey bull. How it is done: as §1, §2, §3
Series [3] has as its system sperm. The series is described as follows: Split quality, height of peak divided by height of valley (Example 5). It counts as cell-based, Jersey bull. The note with it: Hoechst 16 μL/2 mL. As for the experimental part: (§4) A single Jersey bull was collected at an initial sperm concentration 1900×10^6 sperm/ml in a volume of 5 ml. The progressive motility of the sperm was 65% with normal morphologies greater than 65%.
(§5) The entire ejaculate of sperm was suspended in first staining buffer, specifically a 7.4 pH TALP described in TABLE 1, to a concentration of 160×10^6 sperm per mL (determined on nucleocounter) and divided into three aliquots of about 20 mL into 50 mL Falcon tubes and pre-warmed for 10 minutes at 34° C. The DNA selective fluorescent dye, Hoechst 33342, was added and samples were held at 34° C. for 60 minutes. 3 different Hoechst 33342 Stain Levels were used=12 μL, 14 μL and 16 μL per 2 mL (effective concentrations of 48 μM, 56 μM, 64 μM).
(§6) Preparation of the second buffer including the dead quenching dye—A 2 L bag of TALP, described in TABLE 1, was adjusted to pH 5.60 using HCl and then sterile filtered. […] For each of the four dyes tested (R40-red food dye No. 40, Y5—yellow food dye No. 5, Y6—yellow food dye No. 6 and PR—phenol red), an appropriate number of milligrams of each powder was placed in a Erlenmeyer Flask and then an exact amount of TALP pH 5.60 was added to create a 250 μM concentration of the dye. The result was a working TALP stock for each dye with a 100% (125 μM) relative amount of dye 50% relative (62.5 μM) and 20% relative (25 μM) solutions were made by dilution of 100% by TALP pH 5.60.
(§7) Single tubes of stained sperm at each of the three Hoechst 33342 concentrations were treated with TALP pH 5.60 which had no dead quenching dye present. Single tubes using Vitamin B12 (red colored chemical) with stock concentration of 15 μM (12% relative) were tested.
(§8) After this “bulk” staining for 60 minutes, 1 mL aliquots of stained sperm were combined with 1 mL aliquots of the second buffer including the dead quenching dyes. Samples sat for approximately 30 minutes at room temperature before being analyzed on a MoFlo SX (Beckman Coulter, USA) sperm sorting flow cytometer. Event rates were held as close to 13,000 as possible at the point of data acquisition.
(§9) The total number of individual treatments was 42 tubes, each containing 2 mL of stained sample. The alignment of the sorter was established using nuclei and confirmed with live sample from the 50% Red 40 series. Once good alignment was established, each tube was placed on the sorter long enough to establish a stabile dead gate population (about 30 seconds) and then a screenshot was taken and saved as a .jpeg image. This approach of rapidly documenting each sample is used to assure the most consistent alignment between all samples. Realignment of sorter will not cause differences in the intensities of live and dead gate populations but will cause differences in split quality.
(§10) FIG. 4 illustrates an example histogram. The ratio of dead gate intensity divided by live gate intensity is created by dividing the distance “A” by the distance “B” shown as a percentage. Lower values mean higher levels of quenching. The ratio of peak height divided by valley height is created by dividing the distance “C” by the distance “D”. A value of 1.00 means “no split” while higher values mean “better splits”.

For series [4], the system named is membrane compromised sperm. The series is described as follows: Dead gate intensity divided by live gate intensity, flow cytometer (Example 5). It counts as cell-based. How it is done: as §4, §5, §6, §7, §8, §9, §10
(Flow cytometry measures light scatter and fluorescence of single cells or particles in a stream.)

In series [5] the test system is membrane compromised sperm. The series is described as follows: Added dead quenching capacity from bivariate plots (Example 10, FIG. 8). The class given is cell-based, bulls. Particulars: with 25 μM yellow food dye No. 6, red food dye No. 4 at highest tested concentration. How it is done: (§11) Eight bulls were collected, including 4 Jersey bulls, 3 Holstein bulls and one mixed dairy-breed. The ejaculates were collected at concentrations ranging from 1700×10^6 sperm/ml to 1100×10^6 sperm/ml and all had progressive motility of a least 60%.
Sperm from each bull was extended to 160 million per ml with a first buffer, (TALP described in table 1 at a pH 7.4) and stained with 64 μM (164/2 mL) Hoechst 33342 at 34° C. Additionally, Phenol Red, Red Food Dye No. 2, Red Food Dye No. 3, and Red Food Dye No. 4, were each tested as split enhancing dyes in the first buffer at concentrations of 15 μM, 45 μM and 125 μM. For each bull, each concentration of each dye was incubated for periods of 30 minutes, 45 minutes, 60 minutes, and 75 minutes were utilized before a second buffer with an additional dye was applied. […]
Sorting was performed on a MoFlo SX (Beckman Coulter, USA) in substantially the same manner described in Example 5. After calibration, screen shots of sorting histograms were taken and split quality was measured by peak to valley ratios in the same way described in Example 5 with reference to FIG. 4 and the resulting data, averaged over all 8 bulls, is found in Tables 18-21. […]

Series [6] relates to sperm. The series can be described thus: Split quality, split enhancing dyes at various concentrations and incubation times (Example 10). The class given is cell-based, bulls. Particulars: for split enhancing effect compared to control: 15, 45, 125 μM, 30-75 minutes, averaged over 8 bulls; for peak to valley ratio, Average 8 bulls: 25 μM yellow food dye No. 6. As for the experimental part: as §11
Sperm from each bull was extended to 160 million per ml with a first buffer, (TALP described in table 1 at a pH 7.4) and stained with 64 μM (164/2 mL) Hoechst 33342 at 34° C. Additionally, Phenol Red, Red Food Dye No. 2, Red Food Dye No. 3, and Red Food Dye No. 4, were each tested as split enhancing dyes in the first buffer at concentrations of 15 μM, 45 μM and 125 μM. For each bull, each concentration of each dye was incubated for periods of 30 minutes, 45 minutes, 60 minutes, and 75 minutes were utilized before a second buffer with an additional dye was applied.
Each sample was then extended in an equal volume of a second buffer which comprised a 5.5 pH modified TALP having 25 μM yellow food dye No. 6 (acting as a dead quenching dye) in addition to the split enhancing dye provided in the first buffer. The second buffer was applied to every sample at 30 minutes, 45 minutes, 60 minutes, and 75 minutes. A control was additionally taken without any split enhancing dye for every bull at every time interval.
Sorting was performed on a MoFlo SX (Beckman Coulter, USA) in substantially the same manner described in Example 5. After calibration, screen shots of sorting histograms were taken and split quality was measured by peak to valley ratios in the same way described in Example 5 with reference to FIG. 4 and the resulting data, averaged over all 8 bulls, is found in Tables 18-21. Additionally, screen shots of bivariate plots were taken to measure the added dead quenching capacity of the mixed dead quenching and split enhancing dyes.

The test system of series [7] is sperm. The series can be described thus: Split quality, red food dye No. 3 as added split enhancing dye (Example 9). The class given is cell-based, bull. The note with it: with yellow food dye No. 6 or red food dye No. 40 as dead quenching dye. As for the experimental part: A single bull was collected for the Example 9 in the same way described in Example 5. […] The second buffer was additionally treated with concentrations of 25, 50, 100, 150, 300, or 600 μM of red food dye No. 3, as indicated in Table 6. Sorting was performed on a MoFlo SX (Beckman Coulter, USA) in substantially the same manner described in Example 6. After calibration, screen shots of sorting histograms were taken and the split quality was measured in terms of peak to valley ratios in the same way described in Example 5 with reference to FIG. 4 and the resulting data is found in Table 17.

Series [8] relates to sperm. Particulars: as dead quenching dye; cited from earlier work.
[9] abbreviates: split enhancing dye 125 μM, 30 Min.

The structures appear in SMILES notation. Where only a bound is given, the exact number is not on record here.

Turning to `O=C([O-])C1=NN(c2ccc(S(=O)(=O)[O-])cc2)C(=O)/C1=N/Nc1ccc(S(=O)(=O)[O-])cc1.[Na+].[Na+].[Na+]` [Yellow 5, Trisodium (4E)-5-oxo-1-(4-sulfonatophenyl)-4-[(4-sulfonatophenyl)hydrazono]-3-pyrazolecarboxylate], the PV in series [1] (dye 125 μM), in series [1] (dye 250 μM), in series [1] (dye 500 μM), in series [1] (dye 750 μM), in series [1] (dye 875 μM) and in series [1] (dye 1250 μM) was 1.00 throughout. The “amount of dye needed for a similar dead gate intensity ratio as red food dye No. 40 and yellow food dye No. 6” value in series [2] was “about five”. The Intensity in series [2] (dye 125 μM, resulting pH 6.70) was 63%; in series [2] (dye 250 μM, resulting pH 6.70), 48%; in series [2] (dye 500 μM, resulting pH 6.70), 43%; in series [2] (dye 750 μM, resulting pH 6.70), <30%; in series [2] (dye 875 μM, resulting pH 6.70), <30%; in series [2] (dye 1250 μM, second buffer pH 5.60, resulting pH 6.70), <30%. Moreover, the “Height of Peak/Height of Valley” value in series [3] (dye 25 μM) and in series [3] (dye 62.5 μM) was 1.00 throughout. Besides, the “Dead Intensity” value in series [4] (dye 25 μM, Average over Hoechst levels) is given as 90%; in series [4] (dye 25 μM, Hoechst 12 μL/2 mL), 90%; in series [4] (dye 25 μM, Hoechst 14 μL/2 mL), 90%; in series [4] (dye 25 μM, Hoechst 16 μL/2 mL), 90%; in series [4] (dye 62.5 μM, Average over Hoechst levels), 74%; in series [4] (dye 62.5 μM, Hoechst 12 μL/2 mL), 74%. Moreover, the “Dead Intensity” value in series [4] (dye 62.5 μM, Hoechst 14 μL/2 mL) is listed as 77%; in series [4] (dye 62.5 μM, Hoechst 16 μL/2 mL), 70%; in series [4] (dye 125 μM, Average over Hoechst levels) it was 57%; in series [4] (dye 125 μM, Hoechst 12 μL/2 mL), 54%; in series [4] (dye 125 μM, Hoechst 14 μL/2 mL) it was 63%; in series [4] (dye 125 μM, Hoechst 16 μL/2 mL), 55%. Besides, the “ability to create a dead gate population (ordering of the four dyes)” value in series [4] (from dead and live intensity data of Table 13) is “better quenching properties than phenol red”.

Regarding `Cc1c(C(=O)O)c(O)cc2c1C(=O)c1c(O)c(C3O[C@H](CO)[C@@H](O)[C@H](O)[C@H]3O)c(O)c(O)c1C2=O` (stereo in doubt) [Red 4, carmine], the “dead quenching capacity in combination with dead quenching dye” value in series [5] is on record as “significant increase in quenching the dead subpopulation”. Also, in series [6], the “split enhancing effect compared to control” value is “provides distinct improvements at all concentrations and at all times”.

As to `O=C(O)c1ccccc1-c1c2cc(I)c(=O)c(I)c-2oc2c(I)c(O)c(I)cc12` [Red 3, 2-(6-Hydroxy-2,4,5,7-tetraiodo-3-oxo-xanthen-9-yl)benzoic acid], in series [7], the “effect of increasing concentration on split quality” value is given as “improved the split quality up to the concentration of 300 μM”. For the same compound, the “split enhancing effect compared to control” value in series [6] was “provided initial split enhancements at 15 μM and 45 μM”. In addition, the “peak to valley ratio, Average 8 bulls” value in series [6] (setting [9]) was found to be 1.00.

Regarding `O=S(=O)([O-])c1ccc2c(N=Nc3ccc(S(=O)(=O)[O-])c4ccccc34)c(O)c(S(=O)(=O)[O-])cc2c1.[Na+].[Na+].[Na+]` [Red 2], the “dead quenching capacity in combination with dead quenching dye” value in series [5] is recorded as “strong dead quenching capacity”. Moreover, in series [6], the “split enhancing effect compared to control” value is recorded as “did not provide a split enhancing, or noise reducing effect”. Moreover, the “peak to valley ratio, Average 8 bulls” value in series [6] (split enhancing dye 45 μM, 30 Min) was 1.00; in series [6] (setting [9]), 1.00; in series [6] (split enhancing dye 125 μM, 45 Min), 1.00; in series [6] (split enhancing dye 125 μM, 60 Min), 1.00; in series [6] (split enhancing dye 125 μM, 75 Min), 1.00.

As to `CC[N+](C)(CC)CCC[n+]1c(-c2ccccc2)c2cc(N)ccc2c2ccc(N)cc21.[I-].[I-]` [propidium iodine], in series [8], the toxicity to sperm entry was “toxic to sperm”.

The values above are taken from patent US9581587B2, “Sperm staining and sorting methods” (INGURAN, LLC, priority 2011, dated 2017).
